Assays:
[1] = tested on: KG-1 cells; experiment: Measurement of fluorescence v time by flow cytometry, non-monocytic cell line; assay type: cell-based; conditions: KG-1 cells (insignificant quantities of hCE-1); FIG. 5; 3000 nM; median fluorescence intensity v time
Protocol: (§1) The degree of fluorescence of monocytic and non-monocytic cell lines following treatment with Example 1 was assessed using flow cytometry. This assessment was performed using a BD Biosciences BD FACSCanto™ Flow Cytometry System.
(§2) The cell lines are treated with a 3000 nM solution of Example 1. The resultant mixture is sampled at times 0, 1 hr, 2 hr, 4 hr and 6 hr. At each time point a sample of the cells is harvested by centrifugation, washed and allowed to rest for 30 minutes then washed again and re-suspended in a small volume for analysis by flow cytometry (FACSCanto™ A BD Biosciences) at an excitation of 488 nm blue laser line emission measured in an FITC detector using a 502 nm long pass dichroic and a 530±15 band pass filter. Data is expressed as median fluorescence intensity (MFI) for the cell population in the FITC channel, and plotted against time in a line graph. The unstained cells are set to an MFI of 100.

[2] = tested on: THP-1 cells; experiment: Measurement of fluorescence v time by flow cytometry, monocytic cell line; assay type: cell-based; conditions: THP-1 cells (significant quantities of hCE-1); FIG. 6; 3000 nM; median fluorescence intensity v time
Protocol: as §1, §2

O=C(OC1CCCC1)[C@@H](NCc1ccc(OCCCNc2ccc([N+](=O)[O-])c3nonc23)cc1)c1ccccc1 [Example 1, Cyclopentyl (2S)-[(4-{3-[(7-nitro-2,1,3-benzoxadiazol-4-yl)amino]propoxy}benzyl)amino](phenyl)ethanoate]
increase in fluorescence following treatment [1]: low increase in fluorescence | increase in fluorescence following treatment [2]: high increase in fluorescence

Reference: patent US20140010762A1, “IMAGING AGENTS” (Chroma Therapeutics Ltd, priority 2010, published 2014)
